Consider eleven compounds from PubChem BioAssay AID1389 (Sanford-Burnham Center for Chemical Genomics, 2008).

SMILES strings stand for the structures. Active and inactive are the calls of the source.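 Rule for the calls: active = no visible ATF-4 stress protein band on the western blot after compound pretreatment and chemical ER stress; inactive = the rest.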

The assay has as its system CSM14.1 cells, thapsigargin-induced ATF-4 Western blot. In words: ER stress ATF-4 upregulation inhibition – CSM14.1 cells, thapsigargin, Western blot, mechanism study for ER stress cell death inhibitors, late-stage follow-up (AID 1389).

In the case of `CCOc1cccc(C2Nc3ccccc3NC3=C2C(=O)CC(c2ccc(OC)cc2)C3)c1` (stereo unspecified), the outcome was inactive.

For `CSc1ccc(C2Nc3ccccc3NC3=C2C(=O)CC(c2ccccc2)C3)cc1` (stereo unspecified), the result was inactive.

In the case of `CCOc1cc(C2Nc3ccccc3NC3=C2C(=O)CC(c2ccc(OC)cc2)C3)cc(Cl)c1O` (stereo unspecified), the outcome was inactive.

As for `CC1(C)CC(=O)C2=C(C1)Nc1ccccc1NC2c1ccc(-c2ccccc2)cc1` (stereo unspecified), the result was inactive.

As for `COc1ccc(C2CC(=O)C3=C(C2)Nc2ccccc2NC3c2cc(C)ccc2C)cc1` (stereo unspecified), the result was active.

Regarding `COc1ccc(C2CC(=O)C3=C(C2)Nc2ccccc2NC3c2cccc(Br)c2)cc1OC` (stereo unspecified), the outcome was inactive.

Regarding `CCCOc1ccc(C2Nc3ccccc3NC3=C2C(=O)CC(c2ccc(OC)c(OC)c2)C3)cc1` (stereo unspecified), the outcome was active.

As to `O=C1CC(c2ccccc2)CC2=C1C(c1c(F)cccc1Cl)Nc1ccccc1N2` (stereo unspecified), the result was inactive.

With `COc1ccc(C2CC(=O)C3=C(C2)Nc2ccccc2NC3c2cccc(C(F)(F)F)c2)cc1OC` (stereo unspecified), the result was inactive.

Consider `COc1ccc(C2CC(=O)C3=C(C2)Nc2ccccc2NC3c2ccccc2C(F)(F)F)cc1OC` (stereo unspecified), for which the outcome was inactive.

For the compound `COc1ccc(C2CC(=O)C3=C(C2)Nc2ccccc2NC3c2cccc(Oc3ccccc3)c2)cc1OC` (stereo unspecified), the result was inactive.
